The record followed here is ChEMBL document CHEMBL1201862, “PubChem BioAssay data set” (2004).

What is called EC50 is the concentration giving half of the maximal effect. For orientation: AC50 means the concentration giving half of the maximal activity seen. One may read the IC50 as the concentration that inhibits the measured activity by half.

Test [1] addresses G-protein coupled receptor 55 (Homo sapiens, UniProt Q9Y2T6). The test is described as follows: selective activators of receptor GPR55 – imaging, U2OS cells, beta-arrestin-GFP redistribution, primary screen (AID 1961). The test is classed as functional.
The nature of test [2]: viability of HCT116 lacking mutant beta-catenin – cell-based, human colon tumor, dose response (AID 1045).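 Note: HCT116 colon tumor cells with beta catenin knocked out; cells exposed to compound for 60 hours.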 The test is classed as functional.
Test [3] concerns the target Beta-2 adrenergic receptor (Homo sapiens, UniProt P07550). The test is described as follows: ADRB2 activation measured by internalization – cell-based, FAP fluorogen, flow cytometry, cherry pick 1, dose response (AID 588763). The test is classed as functional. A general note: A flow cytometer gives signals particle by particle.
Test [4] can be described thus: viability of PTEN-deleted HCT116 cells – cell-based, HCT116 PTEN knockout, dose response (AID 1047).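 Note: HCT116 colon tumor cells with PTEN knocked out; cells exposed to compound for 60 hours before readout; potency for loss of cell viability measured by luminescence.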 The test is classed as functional.
A further test addresses CAAX prenyl protease 2 (Homo sapiens, UniProt Q9Y256). The test is described as follows: inhibition of Ras-converting CAAX protease Rce1 – biochemical, yeast membranes, quenched-peptide fluorescence, cherry-pick, dose response (AID 588849).
In test [5] the test system is A-375. The test is described as follows: proliferation inhibition in MITF-low A375 cells – cell-based, cherry-pick samples, set 2, counter-screen for MITF modulator project, dose response (AID 540335). The test is classed as functional. The note with it: Homo sapiens.
Test [6] concerns A-375. Briefly: MITF: Counter assay: A375 proliferation Measured in Cell-Based System Using Plate Reader - 2084-03_Inhibitor_Dose_DryPowder_Activity. [Related pubchem assays (depositor defined):AID488944]. The test is classed as functional. The settings on record: Homo sapiens.
Test [7] concerns the target T1, Calpain-2 catalytic subunit (Sus scrofa, UniProt P43367).
T1 sequence (P43367 whole entry): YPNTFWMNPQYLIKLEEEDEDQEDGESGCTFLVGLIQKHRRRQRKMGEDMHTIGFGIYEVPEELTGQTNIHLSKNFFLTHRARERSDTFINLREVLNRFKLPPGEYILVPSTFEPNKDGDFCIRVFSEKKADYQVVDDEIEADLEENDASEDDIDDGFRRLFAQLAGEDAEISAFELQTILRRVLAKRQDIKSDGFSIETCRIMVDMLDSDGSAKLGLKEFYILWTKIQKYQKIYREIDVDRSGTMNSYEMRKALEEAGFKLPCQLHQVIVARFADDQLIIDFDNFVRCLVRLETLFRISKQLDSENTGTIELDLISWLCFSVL
Briefly: m-calpain protease blockers, concentration series – biochemical, fluorogenic peptide substrate, dose response (AID 1420). The test is classed as functional.

For test [8], the target named is ATP-dependent molecular chaperone HSP82 (Candida albicans (strain WO-1) (Yeast), UniProt C4YTQ8). Briefly: steroid-induced GRE reporter decrease in yeast – S. cerevisiae, luminescence, Hsp90 inhibitor project, dose response (AID 2400).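 Note: beta-galactosidase luminescence from glucocorticoid response element reporter as proxy for Hsp90 function; inhibitor potency where signal loss means Hsp90 inhibition.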 The test is classed as functional, cell-based.
Test [9] can be described thus: fluconazole-exposed Candida albicans growth modulators – fluorescence, retest, confirmation (AID 2467). The test is classed as functional, cell-based.
A short description of test [10]: NIH-3T3 fibroblast cytotoxicity, dose response, cytotoxicity control, cell-based, fluorescence, Alamar Blue, secondary assay (AID 2327).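 Note: NIH-3T3 mouse fibroblasts cultured with fluconazole at 8 µg/mL.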 The test is classed as functional. In general terms: Resazurin is reduced to fluorescent resorufin, in cell work by metabolically active cells.
For test [11], the target named is Serine/threonine-protein phosphatase (Candida dubliniensis (strain CD36 / CBS 7987 / NCPF 3949 / NRRLY-17841) (Yeast), UniProt B9W6M3). The test is described as follows: blockers of CaCl2-induced CDRE-lacZ signaling – S. cerevisiae, luminescence, secondary, dose response (AID 2388).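 Note: yeast reporter cells carrying a calcineurin-responsive lacZ construct stimulated with calcium chloride; luminescent beta-galactosidase reporter signal in whole cells rather than isolated phosphatase activity; potency for inhibition where a drop in reporter signal means calcineurin blockade.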 The test is classed as functional, cell-based.
Test [12] deals with 5-hydroxytryptamine receptor 5A (Homo sapiens, UniProt P47898). The test is described as follows: Counterscreen for agonists of OPRM1-OPRD1 heterodimerization: luminescence-based cell-based high throughput dose response assay to identify agonists of 5-hydroxytryptamine (serotonin) 5A receptor (HTR5A). [Related pubchem assays (depositor defined):AID504326, AID504355, AID504692, AID504904, AID504905]. The test is classed as functional. A general note: A counterscreen serves to expose hits that act by an unwanted route or on another target.

Test [13] has as its target Delta-type opioid receptor (Homo sapiens, UniProt P41143). Briefly: Counterscreen for agonists of heterodimerization of the mu 1 (OPRM1) and delta 1 (OPRD1) opioid receptors: Luminescence-based cell-based high throughput dose response assay to identify agonists of OPRD1 homodimerization. [Related pubchem assays (depositor defined):AID504326, AID504355, AID504692, AID504904, AID504905]. The test is classed as functional.

For test [14], the target named is T2, Microphthalmia-associated transcription factor (Homo sapiens, UniProt O75030).
T2 sequence (O75030 whole entry): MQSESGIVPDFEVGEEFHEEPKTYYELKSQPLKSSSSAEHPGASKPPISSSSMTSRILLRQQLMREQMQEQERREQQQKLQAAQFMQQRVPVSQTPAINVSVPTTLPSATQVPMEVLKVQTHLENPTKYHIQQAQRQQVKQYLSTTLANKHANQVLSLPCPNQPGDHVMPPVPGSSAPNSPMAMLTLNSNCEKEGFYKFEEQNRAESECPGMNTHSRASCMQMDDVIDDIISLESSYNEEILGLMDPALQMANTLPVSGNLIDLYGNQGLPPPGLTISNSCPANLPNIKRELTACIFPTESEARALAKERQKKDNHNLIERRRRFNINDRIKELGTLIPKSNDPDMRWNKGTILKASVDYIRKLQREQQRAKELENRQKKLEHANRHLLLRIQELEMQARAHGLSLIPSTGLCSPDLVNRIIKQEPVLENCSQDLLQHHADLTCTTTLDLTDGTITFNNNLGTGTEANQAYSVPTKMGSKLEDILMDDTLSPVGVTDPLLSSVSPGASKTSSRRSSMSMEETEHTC
Briefly: reducers of TRPM1 reporter luminescence, concentration series – cell-based, SK-MEL-5, cherry-picked, set 3, MITF inhibitor project, dose response (AID 493073).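 Note: SK-MEL-5 melanoma cells with luciferase driven by the MITF target TRPM1 promoter.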 The test is classed as functional.

Another test addresses Mu-type opioid receptor (Homo sapiens, UniProt P35372). Briefly: Counterscreen for agonists of heterodimerization of the mu 1 (OPRM1) and delta 1 (OPRD1) opioid receptors: Luminescence-based cell-based high throughput dose response assay to identify agonists of OPRM1 homodimerization. The test is classed as functional.
The nature of test [15]: Luminescence Cell-Based Dose Response Follow up to Identify Inhibitors of Platelet Dense Granule Release. [Related pubchem assays (depositor defined):AID1663, AID1678, AID2398]. The test is classed as functional.
The target of the next test is Phospholipase D1 (Homo sapiens, UniProt Q13393). The test is described as follows: cellular phospholipase D1 inhibition IC50 – cell-based, dose response (AID 602151).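 Note: cellular PLD1 assay in Calu-1 cells stimulated with PMA.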 The test is classed as functional.
In another test the target is Phospholipase D2 (Homo sapiens, UniProt O14939). Briefly: cellular phospholipase D2 inhibition IC50 – cell-based, dose response (AID 602147).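 Note: cellular assay in HEK293 cells overexpressing GFP-tagged PLD2.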 The test is classed as functional.

Calls of active or inactive are those of the source. Bounds are passed on as bounds.

Chain of Beta-2 adrenergic receptor (P07550 whole entry): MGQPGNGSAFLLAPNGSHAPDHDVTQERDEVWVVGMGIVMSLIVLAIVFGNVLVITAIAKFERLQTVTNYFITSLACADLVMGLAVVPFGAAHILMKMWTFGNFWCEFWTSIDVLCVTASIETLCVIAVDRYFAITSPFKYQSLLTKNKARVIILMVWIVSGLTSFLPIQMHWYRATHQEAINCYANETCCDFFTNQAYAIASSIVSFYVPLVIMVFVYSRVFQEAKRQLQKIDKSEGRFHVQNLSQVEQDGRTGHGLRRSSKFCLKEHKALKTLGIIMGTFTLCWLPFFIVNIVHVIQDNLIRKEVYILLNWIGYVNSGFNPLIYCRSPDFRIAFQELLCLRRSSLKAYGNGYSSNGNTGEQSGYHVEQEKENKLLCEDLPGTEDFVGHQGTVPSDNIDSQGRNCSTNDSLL
Chain of Mu-type opioid receptor (P35372 whole entry): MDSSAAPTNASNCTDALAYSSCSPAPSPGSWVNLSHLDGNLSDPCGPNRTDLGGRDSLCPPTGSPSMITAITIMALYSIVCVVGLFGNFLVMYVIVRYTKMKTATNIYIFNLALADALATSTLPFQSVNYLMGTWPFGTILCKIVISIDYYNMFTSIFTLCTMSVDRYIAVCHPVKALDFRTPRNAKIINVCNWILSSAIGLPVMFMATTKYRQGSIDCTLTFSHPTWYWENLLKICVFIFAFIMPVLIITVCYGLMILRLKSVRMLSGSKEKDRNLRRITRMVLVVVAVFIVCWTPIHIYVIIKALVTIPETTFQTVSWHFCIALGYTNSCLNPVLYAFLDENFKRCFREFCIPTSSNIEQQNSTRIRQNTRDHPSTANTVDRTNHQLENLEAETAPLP
Chain of Phospholipase D1 (Q13393 whole entry): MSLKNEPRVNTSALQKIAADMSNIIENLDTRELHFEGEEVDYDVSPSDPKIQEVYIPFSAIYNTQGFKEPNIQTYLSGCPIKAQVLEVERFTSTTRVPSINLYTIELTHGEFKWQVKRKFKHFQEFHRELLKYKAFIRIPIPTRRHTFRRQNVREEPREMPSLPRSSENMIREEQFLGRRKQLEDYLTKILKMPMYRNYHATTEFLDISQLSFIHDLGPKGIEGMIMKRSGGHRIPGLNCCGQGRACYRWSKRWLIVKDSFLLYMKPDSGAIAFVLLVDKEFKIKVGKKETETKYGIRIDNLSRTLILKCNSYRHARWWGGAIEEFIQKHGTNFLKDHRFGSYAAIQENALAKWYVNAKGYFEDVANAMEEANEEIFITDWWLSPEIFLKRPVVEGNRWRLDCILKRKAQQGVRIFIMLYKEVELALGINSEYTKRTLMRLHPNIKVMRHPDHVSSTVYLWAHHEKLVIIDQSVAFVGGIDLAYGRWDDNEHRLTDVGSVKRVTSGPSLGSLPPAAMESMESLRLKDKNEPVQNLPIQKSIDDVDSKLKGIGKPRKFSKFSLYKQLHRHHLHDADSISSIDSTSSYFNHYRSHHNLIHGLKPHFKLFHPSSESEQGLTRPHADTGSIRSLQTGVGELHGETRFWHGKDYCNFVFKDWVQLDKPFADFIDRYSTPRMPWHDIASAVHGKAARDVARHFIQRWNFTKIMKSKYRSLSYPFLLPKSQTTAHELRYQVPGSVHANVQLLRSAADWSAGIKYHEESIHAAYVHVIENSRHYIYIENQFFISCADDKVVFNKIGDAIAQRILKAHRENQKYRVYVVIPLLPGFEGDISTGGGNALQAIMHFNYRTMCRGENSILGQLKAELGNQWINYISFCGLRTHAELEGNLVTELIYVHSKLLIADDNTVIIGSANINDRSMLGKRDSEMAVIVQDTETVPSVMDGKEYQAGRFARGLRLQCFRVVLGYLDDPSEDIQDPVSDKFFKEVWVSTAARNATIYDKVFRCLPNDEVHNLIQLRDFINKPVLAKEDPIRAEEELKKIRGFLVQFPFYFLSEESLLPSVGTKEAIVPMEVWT
Chain of ATP-dependent molecular chaperone HSP82 (C4YTQ8 whole entry): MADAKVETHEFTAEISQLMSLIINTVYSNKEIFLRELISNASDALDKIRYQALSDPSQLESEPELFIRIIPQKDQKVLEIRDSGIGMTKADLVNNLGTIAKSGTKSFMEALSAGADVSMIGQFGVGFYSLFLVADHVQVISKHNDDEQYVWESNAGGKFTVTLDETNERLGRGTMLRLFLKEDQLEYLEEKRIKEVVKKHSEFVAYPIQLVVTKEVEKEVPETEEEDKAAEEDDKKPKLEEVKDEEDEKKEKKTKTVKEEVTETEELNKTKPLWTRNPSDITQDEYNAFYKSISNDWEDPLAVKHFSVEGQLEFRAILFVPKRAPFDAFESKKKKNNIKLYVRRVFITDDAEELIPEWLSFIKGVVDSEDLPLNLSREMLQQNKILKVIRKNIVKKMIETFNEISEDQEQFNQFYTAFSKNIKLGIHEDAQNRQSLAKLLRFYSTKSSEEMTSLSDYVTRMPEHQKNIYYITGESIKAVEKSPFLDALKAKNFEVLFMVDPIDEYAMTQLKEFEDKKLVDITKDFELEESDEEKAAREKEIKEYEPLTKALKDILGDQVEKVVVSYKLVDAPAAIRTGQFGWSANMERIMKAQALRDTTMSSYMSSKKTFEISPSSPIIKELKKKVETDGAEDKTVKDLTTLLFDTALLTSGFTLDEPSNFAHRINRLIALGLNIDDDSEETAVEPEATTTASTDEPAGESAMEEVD
Chain of Delta-type opioid receptor (P41143 whole entry): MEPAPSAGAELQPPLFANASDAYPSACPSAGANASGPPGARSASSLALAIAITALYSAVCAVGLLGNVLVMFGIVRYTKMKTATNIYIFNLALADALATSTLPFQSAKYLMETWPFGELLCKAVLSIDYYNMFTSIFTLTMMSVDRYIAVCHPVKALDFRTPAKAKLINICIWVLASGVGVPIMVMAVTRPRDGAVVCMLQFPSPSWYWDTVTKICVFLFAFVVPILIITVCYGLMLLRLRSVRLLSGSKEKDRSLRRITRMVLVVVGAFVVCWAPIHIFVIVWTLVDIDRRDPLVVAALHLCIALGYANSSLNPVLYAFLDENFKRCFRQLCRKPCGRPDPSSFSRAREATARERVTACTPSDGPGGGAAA
Chain of G-protein coupled receptor 55 (Q9Y2T6 whole entry): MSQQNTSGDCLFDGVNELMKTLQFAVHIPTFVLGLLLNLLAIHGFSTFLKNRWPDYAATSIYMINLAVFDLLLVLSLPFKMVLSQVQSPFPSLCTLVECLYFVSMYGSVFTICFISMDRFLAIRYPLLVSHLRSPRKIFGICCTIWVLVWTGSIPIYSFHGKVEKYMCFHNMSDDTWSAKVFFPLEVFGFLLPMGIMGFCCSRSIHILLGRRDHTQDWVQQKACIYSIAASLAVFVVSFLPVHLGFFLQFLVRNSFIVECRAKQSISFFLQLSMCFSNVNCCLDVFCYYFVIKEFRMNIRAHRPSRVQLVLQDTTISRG
Chain of Serine/threonine-protein phosphatase (B9W6M3 whole entry): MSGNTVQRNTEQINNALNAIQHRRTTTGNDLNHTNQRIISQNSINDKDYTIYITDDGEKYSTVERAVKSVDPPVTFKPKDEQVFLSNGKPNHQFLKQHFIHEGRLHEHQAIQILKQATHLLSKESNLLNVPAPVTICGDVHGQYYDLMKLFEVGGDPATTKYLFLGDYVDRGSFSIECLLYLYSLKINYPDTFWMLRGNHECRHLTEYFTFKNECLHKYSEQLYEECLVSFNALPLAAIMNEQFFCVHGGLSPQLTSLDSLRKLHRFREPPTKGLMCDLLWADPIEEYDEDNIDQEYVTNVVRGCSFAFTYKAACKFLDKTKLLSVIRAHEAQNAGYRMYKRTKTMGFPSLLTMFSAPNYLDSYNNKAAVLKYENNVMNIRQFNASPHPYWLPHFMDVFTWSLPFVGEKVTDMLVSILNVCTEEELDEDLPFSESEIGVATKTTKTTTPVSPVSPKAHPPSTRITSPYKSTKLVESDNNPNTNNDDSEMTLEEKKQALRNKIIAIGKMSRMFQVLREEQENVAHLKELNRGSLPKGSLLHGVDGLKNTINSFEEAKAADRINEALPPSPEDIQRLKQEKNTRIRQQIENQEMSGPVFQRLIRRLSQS
Chain of 5-hydroxytryptamine receptor 5A (P47898 whole entry): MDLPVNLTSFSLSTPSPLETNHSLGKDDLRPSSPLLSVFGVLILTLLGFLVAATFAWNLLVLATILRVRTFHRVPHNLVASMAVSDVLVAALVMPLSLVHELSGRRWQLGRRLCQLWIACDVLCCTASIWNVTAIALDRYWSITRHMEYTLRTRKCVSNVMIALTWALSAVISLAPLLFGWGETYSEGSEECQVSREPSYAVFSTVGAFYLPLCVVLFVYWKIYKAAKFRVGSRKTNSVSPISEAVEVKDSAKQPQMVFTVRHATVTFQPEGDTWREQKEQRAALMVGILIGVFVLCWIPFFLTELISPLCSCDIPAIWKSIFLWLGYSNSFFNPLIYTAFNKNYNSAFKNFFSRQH
Chain of CAAX prenyl protease 2 (Q9Y256 whole entry): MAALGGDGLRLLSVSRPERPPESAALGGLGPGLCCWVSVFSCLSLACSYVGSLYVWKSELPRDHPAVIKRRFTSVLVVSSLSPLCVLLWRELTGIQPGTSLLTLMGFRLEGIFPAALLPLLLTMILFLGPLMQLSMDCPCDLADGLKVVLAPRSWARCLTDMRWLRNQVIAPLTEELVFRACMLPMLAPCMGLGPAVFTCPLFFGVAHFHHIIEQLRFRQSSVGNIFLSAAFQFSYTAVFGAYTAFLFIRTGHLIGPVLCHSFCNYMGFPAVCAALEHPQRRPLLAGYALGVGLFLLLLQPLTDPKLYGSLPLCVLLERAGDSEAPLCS

Take `COc1ccc(C2C(C#N)=C(N)Oc3c2sc2nc(C)cc(C)c32)cc1` (stereo not given): the EC50 was 3.41 µM (active) in test [1], 5.01 µM (active) in test [2], 9.58 µM (inactive) in test [3] and 4.6 µM (active) in test [4].

`CCOC(=O)C1CCCN(S(=O)(=O)c2cc3nc(O)c(O)nc3cc2C)C1` (stereo not given): on CAAX prenyl protease 2, the concentration at half-maximal activity (AC50) is 21.8 µM (active).

`CCOc1ccccc1-c1nc(-c2ccc(C)nc2OC)no1`: the AC50 in the test on A-375 [5] and in the test with A-375 [6] was > 35 µM (active) throughout.

With `CCOc1ccc(NC(S)=NNC(=O)c2ccc(Br)cc2)cc1`, the concentration for half-maximal inhibition (IC50) in test [7] was > 50 µM (not active). For the same compound, the EC50 in test [8] is > 160 µM (inactive); in test [9] it was 0.688 µM (active); in test [10], > 160 µM (inactive); in [11], > 180 µM (inactive).

For the compound `Cc1ccc(NC(=O)c2ncn(CCCN[C@H](C)c3cccc4ccccc34)n2)cc1C`, the figures for the EC50 (in [12]; in [13]; on Mu-type opioid receptor) were > 92.4 µM (inactive), > 92.4 µM (inactive) and > 10.3 µM (inactive), respectively. For the same compound, the AC50 in [14] was 22.7 µM (active); in the test on A-375 [6], 25.8 µM (active).

Consider `CC(=O)Nc1c(C#N)c(-c2ccccc2)c(C#N)c(=O)n1-c1ccc(C)cc1`, for which, in test [15], the EC50 was 129 µM (active).

Take `C[C@@H](CN1CCC(n2c(=O)[nH]c3cc(F)ccc32)CC1)NC(=O)c1ccc(F)c(F)c1`: the figures for the IC50 at Phospholipase D1 and on Phospholipase D2 were 0.012 µM (active) and 0.84 µM (active), respectively.
